Consider three compounds from PMC8099175, “SARS-CoV-2 M^pro inhibitors with antiviral activity in a transgenic mouse model” (Science (New York, N.y.), 2021).

One may read the EC50 as the midpoint of the concentration-response curve. The EC90 is the concentration needed for an effect of 90%. One may read the AUC as concentration integrated over time. A word on the bioavailability: it is dose-corrected exposure relative to a reference, in per cent. Usually half-life stands for how long it takes for the measured level to halve.

Read-outs that look alike come from different tables or passages of the source.

Series [1] deals with SARS-CoV-2–infected Vero E6 cells. Kind of series: cell protection assay (CCK8). The series is classed as cell-based. As to conditions: for EC50: Vero E6 cells, MOI 0.1, 3 dpi, CCK8.
Series [2] deals with SARS-CoV-2 in HPAEpiC cells. Kind of series: RT-qPCR virus replication assay in HPAEpiC cells. The series is classed as cell-based. As to conditions: for EC90: Severe acute respiratory syndrome coronavirus 2.
Series [3] can be described thus: repeated dose toxicity study in rats. In kind it is in vivo. As to conditions: i.v. 6 and 18 mg kg^–1 day^–1, i.p. 100 and 200 mg kg^–1 day^–1, or p.o. 100 and 200 mg/kg twice daily, 7 consecutive days.
In another series the test system is SARS-CoV-2. Kind of series: hACE2 transgenic mouse model of SARS-CoV-2 infection. The series is classed as in vivo, hACE2 transgenic mice. As to conditions: for viral RNA loads in the lung tissues: 2 × 10^6 TCID50, 50 mg/kg, 3 and 5 dpi; for viral loads in the lung tissues: 5 dpi; for lung histopathology / neutrophils and macrophages in the lungs vs control mice: 5 × 10^6 TCID50, 3 dpi; for expression levels of IFN-β and CXCL10 in the lungs: 5 × 10^6 TCID50, lung tissue homogenate; for lung viral loads and lung lesions: oral or intraperitoneal treatment, summary statement; for abnormal behaviors or body weight loss: pilot study, 2 × 10^6 TCID50, MI-09 50 mg/kg p.o. bid or i.p. qd, MI-30 50 mg/kg i.p. qd, 6-day period.

Series [4] is described as follows: PK experiments in Sprague-Dawley rats. To be noted: rat.
From the text: To identify which of the six compounds is suitable for in vivo antiviral studies, we conducted PK experiments in Sprague-Dawley rats.
Series [5] can be described thus: acute toxicity experiment in rats. To be noted: i.v. 40 mg/kg, i.p. 250 mg/kg, or p.o. 500 mg/kg. In kind it is in vivo.
Where [6] appears, read: Severe acute respiratory syndrome coronavirus 2, Vero C1008.
Setting [7] is: 2 × 10^6 TCID50, 50 mg/kg (MI-09 p.o. bid or i.p. qd; MI-30 i.p. qd), 1 dpi.
Setting [8] is: 5 × 10^6 TCID50, 100 mg/kg i.p. or p.o., 1 dpi.
Where [9] appears, read: 5 × 10^6 TCID50, 100 mg/kg i.p. or p.o., 3 dpi.
Where [10] appears, read: 5 × 10^6 TCID50, 100 mg/kg i.p. or p.o.
Setting [11] is: Sprague-Dawley, in vivo, ip, 20 mg/kg.
Setting [12] is: Sprague-Dawley, in vivo, iv, 10 mg/kg.
The mark [13] stands for this setting: Sprague-Dawley, in vivo, po, 20 mg/kg.
Setting [14] is: Severe acute respiratory syndrome coronavirus 2, read-out: EC50, SARS-CoV-2 virus replication (RT-qPCR).

As to `CC(C)C[C@H](NC(=O)OCc1ccccc1)C(=O)N[C@@H](CC1CCNC1=O)C(O)S(=O)(=O)O` (some centres unmarked) [GC376, reference compound], the EC50 in series [1] was 1.46 µM; in series [2] (HPAEpiC cells, MOI 0.01, 2 dpi, viral RNA copies in supernatant, read-out: EC50, SARS-CoV-2 virus replication (RT-qPCR)), 0.153 µM.

Consider `CC1(C)[C@@H]2[C@@H](C(=O)N[C@H](C=O)C[C@@H]3CCNC3=O)N(C(=O)COc3ccc(OC(F)(F)F)cc3)C[C@@H]21` [MI-09], for which, in series [3], the “toxicity, repeated dose” value is given as “did not result in noticeable toxicity”. Further, in series [1] (setting [6]), the EC90 was determined as 3.62 µM and the EC50 was 0.86 µM. In the series with SARS-CoV-2 (setting [7]), the “mean viral RNA loads in the lung tissues vs control” value (“mean viral RNA loads … vs control” below) was “significantly (P < 0.05, Student’s t test) lower”. Also, in the series with SARS-CoV-2, the “viral RNA loads in the lung tissues” value is “almost undetectable”; the lung histopathology result is “slight alveolar septal thickening and mild inflammatory cell infiltration”; the “neutrophils and macrophages in the lungs vs control mice” value is “fewer”; the “lung viral loads and lung lesions” value is on record as “significantly reduced”. Also, the “abnormal behaviors or body weight loss” value in the series on SARS-CoV-2 is on record as “no abnormal behaviors or body weight loss were observed”. For the same compound, the “mean viral RNA loads … vs control” value in the series with SARS-CoV-2 (setting [8]) was “slightly lower”. Further, the “mean viral RNA loads … vs control” value in the series with SARS-CoV-2 (setting [9]) is reported as “significantly lower”. Besides, the “viral loads in the lung tissues” value with SARS-CoV-2 (setting [10]) is “undetectable”. For the same compound, the “expression levels of IFN-β and CXCL10 in the lungs” value in the series on SARS-CoV-2 (3 dpi) is on record as “reduced”. In series [4] (setting [11]), this compound displayed an AUC of 11600 ng·h/mL. For the same compound, the AUC in series [4] (setting [12]) worked out at 7430 ng·h/mL. In series [4] (setting [13]), the AUC is 1660 ng·h/mL and the bioavailability came to 11.2%. Further, in series [5], the “mortality, acute toxicity” value is reported as “no rats died”. Further, the EC90 in series [2] was found to be 0.0479 µM. The EC50 in series [2] (setting [14]) was determined as 0.0012 µM.

`O=C[C@H](C[C@@H]1CCNC1=O)NC(=O)[C@@H]1[C@H]2CCC[C@H]2CN1C(=O)COc1ccc(Cl)cc1Cl` [MI-30]: the “toxicity, repeated dose” value in series [3] is “did not result in noticeable toxicity”. In series [1] (setting [6]), it took 2.12 µM to reach the 90% level (EC90) and the midpoint of the response, the EC50, lay at 0.54 µM. Further, the “mean viral RNA loads … vs control” value in the series with SARS-CoV-2 (setting [7]) is listed as “significantly (P < 0.05, Student’s t test) lower”. In the series on SARS-CoV-2, the “viral RNA loads in the lung tissues” value is reported as “almost undetectable”; the lung histopathology result was “slight alveolar septal thickening and mild inflammatory cell infiltration”; the “neutrophils and macrophages in the lungs vs control mice” value is “fewer”; the “lung viral loads and lung lesions” value is recorded as “significantly reduced”. Also, in the series with SARS-CoV-2, the “abnormal behaviors or body weight loss” value is recorded as “no abnormal behaviors or body weight loss were observed”. Also, the “mean viral RNA loads … vs control” value in the series on SARS-CoV-2 (setting [8]) is listed as “slightly lower”. Also, the “mean viral RNA loads … vs control” value in the series on SARS-CoV-2 (setting [9]) is “significantly lower”. In the series on SARS-CoV-2 (setting [10]), the “viral loads in the lung tissues” value is on record as “undetectable”. The “expression levels of IFN-β and CXCL10 in the lungs” value with SARS-CoV-2 (3 dpi) was “reduced”. Besides, in series [4] (setting [11]), the AUC was 14900 ng·h/mL and the half-life was 3.88 h. Also, the AUC in series [4] (setting [12]) was determined as 9770 ng·h/mL. In series [4] (setting [13]), this compound showed an AUC of 2840 ng·h/mL and a bioavailability of 14.6%. Moreover, the “clearance rate (CL)” value in series [4] (i.p. administration) is given as 17.10 ml min^–1 kg^–1. For the same compound, in series [5], the “mortality, acute toxicity” value is listed as “no rats died”. In series [2], this compound yielded an EC90 of 0.0588 µM. The EC50 in series [2] (setting [14]) came out at 0.0011 µM.
